Values of other authors, collected in patent US20260355187A1, “LURBINECTEDIN AND DOXORUBICIN COMBINATION” (PHARMA MAR, S.A., priority 2022, published 2026).
Where a name gives a salt, the structure may show the parent alone.

What was measured:
[1] = tested on: CYP3A4, CYP2D6, and/or P-gp; conditions: role: substrate; inhibitors e.g. verapamil
CYP2D6 = conditions: role: substrate
cytochrome P450 CYP3A4 = conditions: role: substrate
P-glycoprotein (P-gp) = conditions: role: substrate
other CYP isoenzymes = conditions: role: substrate; human microsomes, in vitro
[2] = tested on: tumour-derived cell lines; conditions: in vitro
[3] = tested on: tumour-associates macrophages; conditions: by inhibiting active transcription
CYP2E1 = conditions: role: substrate; human microsomes, in vitro; after CYP3A4
[4] = tested on: NCI panel of 36 cell lines
CYP3A4 = conditions: role: substrate; human microsomes, in vitro

Structure (SMILES): COc1cccc2c1C(=O)c1c(O)c3c(c(O)c1C2=O)C[C@@](O)(C(=O)CO)C[C@@H]3O[C@H]1C[C@H](N)[C@H](O)[C@H](C)O1 [doxorubicin, 5,12-Naphthacenedione, 10-[(3-amino-2,3,6-trideoxy-α-L-lyxo-hexopyranosyl)oxy]-7,8,9,10tetrahydro-6,8,11-trihydroxy-8-(hydroxylacetyl)-1-methoxy-, hydrochloride (8S-cis)]
- Clinical interaction with inhibitors of CYP3A4, CYP2D6, and/or P-gp [1]: increased concentration and clinical effect of doxorubicin
- Substrate of CYP2D6 (CYP2D6): major substrate
- Substrate of CYP3A4 (cytochrome P450 CYP3A4): major substrate
- Substrate of P-glycoprotein (P-gp) (P-glycoprotein (P-gp)): major substrate

Structure (SMILES): COc1ccc2[nH]c3c(c2c1)CCN[C@]31CS[C@@H]2c3c(OC(C)=O)c(C)c4c(c3[C@H](COC1=O)N1[C@@H]2[C@H]2c3c(cc(C)c(OC)c3O)C[C@@H]([C@@H]1O)N2C)OCO4 [lurbinectedin]
- Estimated contribution of the other CYP isoenzymes to metabolism (other CYP isoenzymes): negligible
- half maximal inhibitory concentration (IC50), range in words ([2]; broad selection of tumour-derived cell lines): low to very low nanomolar range
- IC50 ([2]; median over tumour-derived cell lines): ~0.1 nM
- Cytokine production in tumour-associated macrophages [3]: downregulates IL-6, IL-8, CCL2, and VEGF
- Contribution of CYP2E1 to metabolism (CYP2E1): followed by CYP2E1
- COMPARE analysis ([4]; against other 98 standard anticancer agents): negative
- COMPARE correlation with trabectedin (S-rank) ([4]; versus trabectedin): > 0.8
- Contribution of CYP3A4 to metabolism (CYP3A4): major CYP isoform involved in the metabolism
